pIC50: −log10 of the molar value.
Legend:
[1] = molecular target: BACE1 (Homo sapiens (Human), UniProt P56817); experiment: Cellular Aβ-lowering assay (Aβ40 ELISA in HEK293 cells expressing human APP695); assay type: cell-based; conditions: HEK293 cells stably transfected with human APP wt (APP695), Aβ40 in supernatant after 18-20 hrs
Protocol: Cellular Aβ-Lowering Assay:
Human HEK293 cells which are stably transfected with a vector expressing a cDNA of the human APP wt gene (APP695) were used to assess the potency of the compounds in a cellular assay. The cells were seeded in 96-well microtiter plates in cell culture medium (Iscove, plus 10% (v/v) fetal bovine serum, glutamine, penicillin/streptomycin) to about 80% confluence and the compounds were added at a 10× concentration in 1/10 volume of medium without FCS containing 8% DMSO (final concentration of DMSO was kept at 0.8% v/v). After 18-20 hrs incubation at 37° C. and 5% CO2 in a humidified incubator the culture supernatant was harvested for the determination of Aβ40 concentrations. 96 well ELISA plates (e.g., Nunc MaxiSorb) were coated with monoclonal antibody which specifically recognize the C-terminal end of Aβ40 (Brockhaus et al., NeuroReport 9, 1481-1486; 1998). After blocking of non-specific binding sites with e.g. 1% BSA and washing, the culture supernatants were added in suitable dilutions together with a horseradish peroxidase-coupled Aβ detection antibody (e.g., antibody 4G8, Senetek, Maryland Heights, Mo.) and incubated for 5 to 7 hrs. Subsequently the wells of the microtiter plate were washed extensively with Tris-buffered saline containing 0.05% Tween 20 and the assay was developed with tetramethylbenzidine/H2O2 in citric acid buffer. After stopping the reaction with one volume 1NH2SO4 the reaction was measured in an ELISA reader at 450 nm wavelength. The concentrations of Aβ in the culture supernatants were calculated from a standard curve obtained with known amounts of pure Aβ peptide.

[2] = molecular target: BACE2 (Homo sapiens (Human), UniProt Q9Y5Z0); experiment: Immunofluorescence Resonance Energy Transfer (FRET) assay for BACE2 inhibition; assay type: biochemical; conditions: TMEM27-based peptide substrate 5 μM, pH 4.5
Protocol: Immunofluorescence Resonance Energy Transfer (FRET) Assay for BACE2 Inhibition:
BACE2 enzyme ectodomain (derived from plasmid “pET17b-T7-hu proBACE2”) was prepared as described in Ostermann et al., “Crystal Structure of Human BACE2 in Complex with a Hydroxyethylamine Transition-state Inhibitor”, Journal of Molecular Biology 2006, 355, 249-261. The pro-enzyme was stored at 4° C. at a concentration of 70 μg/ml.
The FRET assay was performed essentially as described in Grüninger-Leitch et al., Journal of Biological Chemistry (2002) 277(7) 4687-93 (“Substrate and inhibitor profile of BACE (beta-secretase) and comparison with other mammalian aspartic proteases”). In summary, a peptide is designed that is cleaved by the protease. The peptide is labelled with dabcyl at the N terminus and Lucifer Yellow at the C-terminus, such that for an intact peptide the Lucifer Yellow fluorescence is quenched by the dabcyl. When the peptide is cut by BACE2, the quenching is removed and a fluorescent signal is generated.
The assay was performed as described in Grueninger et al. 2002 at pH 4.5 using a substrate concentration of 5 μM. A FRET peptide based on the TMEM27 sequence was devised. dabcyl-[…]-LucY (SEQ ID NO: 1).
The assay readout is the initial rate of change of fluorescence intensity giving a relative measure of BACE2 activity. Small values correspond to high inhibition and larger values to low inhibition. […] IC50 values were determined using these assay values generated for a range of inhibitor concentrations and the curve fitting software XLfit (IDBS) using the Sigmoidal Dose-Response Model.

Chain of BACE2 (Q9Y5Z0 63-473): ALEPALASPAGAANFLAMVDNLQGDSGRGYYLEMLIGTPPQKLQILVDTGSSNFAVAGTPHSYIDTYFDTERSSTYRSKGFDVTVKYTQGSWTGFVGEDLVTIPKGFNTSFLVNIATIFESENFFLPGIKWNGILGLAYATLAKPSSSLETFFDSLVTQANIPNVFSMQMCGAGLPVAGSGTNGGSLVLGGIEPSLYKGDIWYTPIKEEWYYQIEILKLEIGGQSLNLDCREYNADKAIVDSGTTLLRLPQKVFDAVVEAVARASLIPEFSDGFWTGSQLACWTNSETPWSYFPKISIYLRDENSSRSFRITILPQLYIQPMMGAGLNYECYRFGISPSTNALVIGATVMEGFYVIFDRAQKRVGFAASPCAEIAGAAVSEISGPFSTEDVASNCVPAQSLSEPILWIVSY
Chain of BACE1 (P56817 46-501): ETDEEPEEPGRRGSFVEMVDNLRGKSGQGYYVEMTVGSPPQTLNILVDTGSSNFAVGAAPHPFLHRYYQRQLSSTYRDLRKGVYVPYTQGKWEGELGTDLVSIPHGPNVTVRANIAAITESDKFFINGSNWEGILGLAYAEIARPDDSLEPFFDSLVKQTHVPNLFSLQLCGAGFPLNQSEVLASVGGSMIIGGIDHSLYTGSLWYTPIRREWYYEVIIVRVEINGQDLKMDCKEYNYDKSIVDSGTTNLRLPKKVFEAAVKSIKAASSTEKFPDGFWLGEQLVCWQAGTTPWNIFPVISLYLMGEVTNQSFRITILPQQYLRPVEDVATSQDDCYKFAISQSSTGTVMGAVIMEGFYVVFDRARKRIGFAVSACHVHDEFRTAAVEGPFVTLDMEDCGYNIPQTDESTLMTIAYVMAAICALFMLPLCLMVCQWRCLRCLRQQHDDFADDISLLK

SMILES	pIC50 [1]	pIC50 [2]
CC1(C)OCC(N)=N[C@](C)(c2cc(Nc3cncc(F)c3)ccc2F)C1(F)F [Example 23, (R)-6,6-Difluoro-5-[2-fluoro-5-(5-fluoro-pyridin-3-ylamino)-phenyl]-5,7,7-trimethyl-2,5,6,7-tetrahydro-[1,4]oxazepin-3-ylamine]	6.36	5.87
CC1(C)OCC(N)=N[C@](C)(c2cc(N[C@@H]3CCc4cc(C#N)cnc43)c(F)cc2F)C1(F)F [Example 21, (R)-7-[5-((R)-3-Amino-6,6-difluoro-5,7,7-trimethyl-2,5,6,7-tetrahydro-[1,4]oxazepin-5-yl)-2,4-difluoro-phenylamino]-6,7-dihydro-5H-[1]pyrindine-3-carbonitrile]	4.85	5.55
CC1(C)OCC(N)=N[C@](C)(c2cc(NC3CCCc4cc(C#N)cnc43)ccc2F)C1(F)F (stereo partly drawn) [Example 16, 8-[3-((R)-3-Amino-6,6-difluoro-5,7,7-trimethyl-2,5,6,7-tetrahydro-[1,4]oxazepin-5-yl)-4-fluoro-phenylamino]-5,6,7,8-tetrahydro-quinoline-3-carbonitrile]	6.92	6.88
CC1(C)OCC(N)=N[C@](C)(c2cc(NC3COc4cc(Cl)cnc43)ccc2F)C1(F)F (stereo partly drawn) [Example 15, [3-((R)-3-Amino-6,6-difluoro-5,7,7-trimethyl-2,5,6,7-tetrahydro-[1,4]oxazepin-5-yl)-4-fluoro-phenyl]-(6-chloro-2,3-dihydro-furo[3,2-b]pyridin-3-yl)-amine]	7.40	7.24

— patent publication US8748418B2, “1,4-oxazepines as BACE1 and/or BACE2 inhibitors” (Hoffmann-La Roche Inc., priority 2011, dated 2014)
